# Patent EP4813989A1, “CRYSTAL, PHARMACEUTICAL COMPOSITION, PREPARATION METHOD THEREFOR, AND USE THEREOF” (TYK Medicines, Inc., priority 2023, dated 2025)
# Assay: Pharmacokinetic test in SD rats
# Type: in vivo
# Settings: for AUC(0-inf) / AUC(0-t) / Cmax / MRT last / Tmax: rat, plasma, po; for AUC(0-inf) / AUC(0-t) / Cmax / MRT last / Tmax / Plasma concentration: 10 mg/kg; for Plasma concentration: 10 mg/kg p.o., listed as compound represented by formula I (amorphous form)
# Protocol: Experimental animals: healthy adult SD rats, male, 6 in total, divided into two groups, with 3 rats per group, aged 6-8 weeks; and body weight approximately 200-300 g. The rats were fed in rat cages, and fasted (for at least 10 hours) with free access to water one day before the experiment. On the day of experiment, the rats were weighed and marked at the tail respectively. Blank blood samples were collected respectively before drug administration. The blood samples were collected via the tail vein. Drug administration method: intragastric gavage (p.o.): intragastric gavage with drug suspension; preparation of drug suspension: approximately 10 mg of test sample was accurately weighed, dissolved in 5% DMSO (calculated proportion), and vortexed with 10% solutol HS-15 and 85% saline to obtain a suspension with a concentration of 1.0 mg/mL; and the suspension was freshly prepared before use.
# Sample collection: the rats were administered a single oral dose of 10mg/kg via intragastric gavage (p.o.). Timing was started immediately after the administration was completed, and blood samples were collected at 0.5, 1, 2, 4, 6, 8, 12 and 24 hours after administration. A volume of 0.1mL of whole blood was collected into EDTA-Na2 anticoagulant tubes, mixed by inverting 3-4 times, centrifuged at 10000 g for 5 minutes at 4°C to separate the plasma, and then the plasma was stored at -80 °C until testing. The blood samples were collected via the tail vein.
# Sample preparation: 1) the samples were thawed, and 15 µL of unknown plasma samples before or after administration, standard series solutions, and single blank and double blank samples were respectively transferred into 1.5 mL centrifuge tubes. 2) 15 µL of protein precipitant (methanol) and 400 µL of internal standard solution (verapamil in methanol, approximately 10 ng/mL) were added to each sample sequentially, vortexed for 2 minutes, and then centrifuged at 4°C and 12000 rpm for 10 minutes. 3) The supernatant was collected for LC-MS/MS detection.
# Analytical conditions: liquid chromatography conditions: liquid chromatography system: Shimadzu Nexera X2; chromatographic column: Agilent ZORBAX XDB-C18 3.5 (2.1 × 50 mm); column temperature: 35°C; mobile phase: A-5% acetonitrile (0.1% formic acid in water), B-95% acetonitrile (0.1% formic acid in water); injection volume: 3 µL; and
# flow rate: 0.5 mL/min. Gradient elution was employed, and an elution program can be seen in the table below.
# Mass spectrometry conditions: mass spectrometric analysis was carried out using an electrospray ionization (ESI) source in a positive ion mode with multiple reaction monitoring (MRM). The mass spectrometer ion source parameters and compound detection parameters can be seen in the table below.
# PK parameter processing: pharmacokinetic (PK) parameters were calculated according to a plasma concentration from individual plasma concentration and corresponding sampling time data using Phoenix WinNonlin software with a non-compartmental model. (1) The PK parameters used for pharmacokinetic evaluation included: Cmax, AUC0-t, AUC0-∞, Tmax and t1/2.
# (2) The parameters used for bioequivalence evaluation: Cmax, AUC0-t and AUC0-∞ were used for the bioequivalence evaluation.
# Cmax: maximum plasma concentration measured within specified period, presented as measured value.
# Tmax: time measured to reach maximum plasma concentration, presented as measured value. If the maximum value occurred at more than one time point, Tmax was defined as the first time point at which this value was observed.
# AUC0-t: area under plasma concentration-time curve from 0 to last time point t.
# AUC0-∞: area under plasma concentration-time curve from 0 to infinity. Ct was the last measured concentration, and λz was the terminal elimination rate constant. AUC0−∞ = AUC0−t + (Ct)/(λz)AUC0−∞ = AUC0−t + (Ct)/(λz) [formula]
# t1/2: elimination or terminal half-life, estimated by ln2/λz.
# [1] = Mean of rats No. 1-3, intragastric gavage at 10 mg/kg
# [2] = rat No. 1, intragastric gavage at 10 mg/kg
# [3] = rat No. 2, intragastric gavage at 10 mg/kg
# [4] = rat No. 3, intragastric gavage at 10 mg/kg
# [5] = rats, intragastric gavage 10 mg/kg, Mean
compound,measurement,setting,value
C[C@@H](Nc1ccn2ncc(C3=NOC(C)(C)N3)c2n1)c1cc(F)cc(F)c1F [amorphous form],HL_,[1],8.72 h
same,HL_,[2],6.05 h
same,HL_,[3],17.2 h
same,HL_,[4],2.93 h
same,AUC(0-inf),[1],1560 ng·h/mL
same,AUC(0-t),[1],1080 ng·h/mL
same,Cmax,[1],151 ng/mL
same,MRT last,[1],7.55 h
same,Tmax,[1],6 h
same,AUC(0-inf),[2],982 ng·h/mL
same,AUC(0-t),[2],894 ng·h/mL
same,Cmax,[2],87.1 ng/mL
same,MRT last,[2],7.84 h
same,Tmax,[2],8 h
same,AUC(0-inf),[3],3200 ng·h/mL
same,AUC(0-t),[3],1910 ng·h/mL
same,Cmax,[3],307 ng/mL
same,MRT last,[3],9.26 h
same,Tmax,[3],4 h
same,AUC(0-inf),[4],487 ng·h/mL
same,AUC(0-t),[4],428 ng·h/mL
same,Cmax,[4],58.3 ng/mL
same,MRT last,[4],5.56 h
same,Tmax,[4],6 h
same,AUC(0-t),[5],1080 ng·h/mL
same,Cmax,[5],151 ng/mL
same,Plasma concentration,"rats, 0.5 h, Mean",41.0 ng/mL
same,Plasma concentration,"rats, 0.5 h, No. 1",44.5 ng/mL
same,Plasma concentration,"rats, 0.5 h, No. 2",49.0 ng/mL
same,Plasma concentration,"rats, 0.5 h, No. 3",29.4 ng/mL
same,Plasma concentration,"rats, 1 h, Mean",22.5 ng/mL
same,Plasma concentration,"rats, 1 h, No. 1",20.8 ng/mL
same,Plasma concentration,"rats, 1 h, No. 2",21.5 ng/mL
same,Plasma concentration,"rats, 1 h, No. 3",25.3 ng/mL
same,Plasma concentration,"rats, 2 h, Mean",56.2 ng/mL
same,Plasma concentration,"rats, 2 h, No. 1",64.1 ng/mL
same,Plasma concentration,"rats, 2 h, No. 2",71.2 ng/mL
same,Plasma concentration,"rats, 2 h, No. 3",33.2 ng/mL
same,Plasma concentration,"rats, 4 h, Mean",142 ng/mL
same,Plasma concentration,"rats, 4 h, No. 1",71.7 ng/mL
same,Plasma concentration,"rats, 4 h, No. 3",47.9 ng/mL
same,Plasma concentration,"rats, 6 h, Mean",86.2 ng/mL
same,Plasma concentration,"rats, 6 h, No. 1",72.4 ng/mL
same,Plasma concentration,"rats, 6 h, No. 2",128 ng/mL
same,Plasma concentration,"rats, 6 h, No. 3",58.3 ng/mL
same,Plasma concentration,"rats, 8 h, Mean",68.7 ng/mL
same,Plasma concentration,"rats, 8 h, No. 1",87.1 ng/mL
same,Plasma concentration,"rats, 8 h, No. 2",84.3 ng/mL
same,Plasma concentration,"rats, 8 h, No. 3",34.7 ng/mL
same,Plasma concentration,"rats, 12 h, Mean",24.4 ng/mL
same,Plasma concentration,"rats, 12 h, No. 1",18.6 ng/mL
same,Plasma concentration,"rats, 12 h, No. 2",40.6 ng/mL
same,Plasma concentration,"rats, 12 h, No. 3",14.0 ng/mL
same,Plasma concentration,"rats, 24 h, Mean",31.2 ng/mL
same,Plasma concentration,"rats, 24 h, No. 1",10.2 ng/mL
same,Plasma concentration,"rats, 24 h, No. 2",52.2 ng/mL
